The target of one assay is p38α (Homo sapiens, UniProt Q16539). Nature of the assay: p38 in-vitro HTRF enzyme assay. It is filed as biochemical. The conditions noted are these: IC50 value ranges. Put shortly:
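Activated recombinant human p38α with ATP and 100 nM GST-ATF2-Avitag, 1 h at RT in Tris pH 7.5/MgCl2 buffer; compound 10-point 3-fold series from about 1 μM final. HTRF 665/620 nm ratio; IC50 from 4-parameter fit, Ki via Cheng-Prusoff with experimental ATP Km.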

The next assay has as its system THP1 cells. Nature of the assay: Lipopolysaccharide-activated THP1 cell TNF production assay. It is filed as cell-based, human. Particulars: Homo sapiens, THP-1; LPS-induced TNF-α production in THP1 cells. An outline of the steps: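 THP1 cells at 1E6/mL were stimulated with LPS (1 μg/mL prepared stock) alongside 3-fold serially diluted compound for 3 h at 37 °C. Secreted TNF-α was quantified by electrochemiluminescence sandwich immunoassay. Percent of DMSO control was fitted to a 4-parameter logistic equation.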

For the next assay, the system named is monocytes. In words: Lipopolysaccharide-activated monocyte TNF production assay (LPS induced TNF release). The format is cell-based, human. The conditions noted are these: Homo sapiens, Monocyte; LPS induced TNF release from monocytes; read-out: LPS induced TNFa. An outline of the steps:
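Adherent monocytes from human PBMCs were pretreated with compound 60 min, then stimulated with E. coli LPS (30 ng/mL stock added) for 4 h at 37 °C. Supernatant TNF-α measured by sandwich ELISA; concentration giving 50% TNF reduction derived by polynomial fit.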

pIC50: −log10 of the molar value. Where only a bound is given, the exact number is not on record here.

Chain of p38α (Q16539 whole entry): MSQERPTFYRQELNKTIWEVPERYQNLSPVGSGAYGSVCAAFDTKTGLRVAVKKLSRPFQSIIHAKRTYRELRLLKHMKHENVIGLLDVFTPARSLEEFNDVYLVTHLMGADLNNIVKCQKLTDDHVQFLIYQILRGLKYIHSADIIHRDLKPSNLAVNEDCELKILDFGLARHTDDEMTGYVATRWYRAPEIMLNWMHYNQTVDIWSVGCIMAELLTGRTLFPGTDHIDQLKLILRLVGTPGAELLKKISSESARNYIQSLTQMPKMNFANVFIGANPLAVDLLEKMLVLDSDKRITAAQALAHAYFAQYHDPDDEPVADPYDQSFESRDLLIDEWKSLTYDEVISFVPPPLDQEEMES

Take `Cc1c(F)cc(C(=O)NC2CC2)cc1-c1ccn2c(-c3c(F)cccc3Cl)nnc2c1` [Example 56, 3-(3-(2-chloro-6-fluorophenyl)[1,2,4]triazolo[4,3-a]pyridin-7-yl)-N-cyclopropyl-5-fluoro-4-methylbenzamide]: the pIC50 on p38α, in the assay with THP1 cells and in the assay with monocytes was above 7.60 throughout.
Take `Cc1ccc(C(=O)NC2CC2)cc1-c1ccn2c(-c3ocnc3C)nnc2c1` [Example 57, N-cyclopropyl-4-methyl-3-(3-(4-methyl-1,3-oxazol-5-yl)[1,2,4]triazolo[4,3-a]pyridin-7-yl)benzamide]: the pIC50 is 7.00 to 7.60 against p38α, 6.00 to 6.60 in the assay on THP1 cells and 6.00 to 6.60 with monocytes.
Regarding `Cc1c(F)cc(C(=O)NC2CC2)cc1-c1ccn2c(-c3c(Cl)cccc3Cl)nnc2c1` [Example 59, N-cyclopropyl-3-(3-(2,6-dichlorophenyl)[1,2,4]triazolo[4,3-a]pyridin-7-yl)-5-fluoro-4-methylbenzamide], the pIC50 at p38α, in the assay on THP1 cells and with monocytes was above 7.60 throughout.
On to `Cc1ncoc1-c1nnc2cc(-c3cc(C(=O)NC4CC4)cc(F)c3C)ccn12` [Example 60, N-cyclopropyl-3-fluoro-4-methyl-5-(3-(4-methyl-1,3-oxazol-5-yl)[1,2,4]triazolo[4,3-a]pyridin-7-yl)benzamide], for which the pIC50 was above 7.60 at p38α, 6.60 to 7.00 in the assay with THP1 cells and 6.60 to 7.00 in the assay with monocytes.
`Cc1c(F)cc(C(=O)Nc2ccnn2C)cc1-c1ccn2c(-c3c(F)cccc3Cl)nnc2c1` [Example 61, 3-(3-(2-chloro-6-fluorophenyl)[1,2,4]triazolo[4,3-a]pyridin-7-yl)-5-fluoro-4-methyl-N-(1-methyl-1H-pyrazol-5-yl)benzamide]: the pIC50 against p38α is 7.00 to 7.60; in the assay with THP1 cells, 7.00 to 7.60; in the assay on monocytes it was 6.60 to 7.00.
For the molecule `Cc1ccc(C(=O)NC2CC2)cc1-c1ccn2c(-c3c(Cl)cccc3Cl)nnc2c1` [Example 62, N-cyclopropyl-3-(3-(2,6-dichlorophenyl)[1,2,4]triazolo[4,3-a]pyridin-7-yl)-4-methylbenzamide], the pIC50 against p38α, in the assay on THP1 cells and in the assay on monocytes was above 7.60 in each case.
As to `Cc1ccc(C(=O)NC2CC2)cc1-c1ccn2c(-c3c(F)cccc3Cl)nnc2c1` [Example 63, 3-(3-(2-chloro-6-fluorophenyl)[1,2,4]triazolo[4,3-a]pyridin-7-yl)-N-cyclopropyl-4-methylbenzamide], the pIC50 against p38α, with THP1 cells and in the assay on monocytes was above 7.60 throughout.
For the molecule `Cc1c(F)cc(C(=O)NC2CC2)cc1-c1ccn2c(-c3c(F)cccc3F)nnc2c1` [Example 64, N-cyclopropyl-3-(3-(2,6-difluorophenyl)[1,2,4]triazolo[4,3-a]pyridin-7-yl)-5-fluoro-4-methylbenzamide], the pIC50 on p38α, in the assay on THP1 cells and in the assay with monocytes was above 7.60 throughout.
Consider `Cc1ccc(C(=O)NC2CC2)cc1-c1ccn2c(Nc3ccccc3)nnc2c1` [Example 66, N-cyclopropyl-4-methyl-3-(3-(phenylamino)[1,2,4]triazolo[4,3-a]pyridin-7-yl)benzamide], for which the pIC50 against p38α was above 7.60; in the assay with THP1 cells, 6.00 to 6.60; with monocytes, 6.60 to 7.00.
Regarding `Cc1ccc(C(=O)NC2CC2)cc1-c1ccn2c(-c3c(F)cccc3C(F)(F)F)nnc2c1` [Example 69, N-cyclopropyl-3-(3-(2-fluoro-6-(trifluoromethyl)phenyl)[1,2,4]triazolo[4,3-a]pyridin-7-yl)-4-methylbenzamide], the pIC50 at p38α was above 7.60; with THP1 cells, above 7.60; in the assay on monocytes it was 7.00 to 7.60.
Regarding `Cc1cc(F)c(C(=O)NC2CC2)cc1-c1ccn2c(-c3ccccc3Cl)nnc2c1` [Example 70, 5-(3-(2-chlorophenyl)[1,2,4]triazolo[4,3-a]pyridin-7-yl)-N-cyclopropyl-2-fluoro-4-methylbenzamide], the pIC50 on p38α is above 7.60; with THP1 cells, 7.00 to 7.60; with monocytes it was 6.60 to 7.00.
In the same order, the values of `Cc1c(F)cc(C(=O)NC2CC2)cc1-c1ccn2c(-c3ccccc3C(F)(F)F)nnc2c1` [Example 74, N-cyclopropyl-3-fluoro-4-methyl-5-(3-(2-(trifluoromethyl)phenyl)[1,2,4]triazolo[4,3-a]pyridin-7-yl)benzamide] are above 7.60, above 7.60 and above 7.60.
The matching figures for `Cc1ccc(C(=O)NC2CC2)cc1-c1ccn2c(N(C)c3ccccc3)nnc2c1` [Example 75, N-cyclopropyl-4-methyl-3-(3-(methyl(phenyl)amino)[1,2,4]triazolo[4,3-a]pyridin-7-yl)benzamide]: above 7.60, 7.00 to 7.60 and 6.00 to 6.60.
As for `Cc1ccc(C(=O)NC2CC2)cc1-c1ccn2c(-c3ccccc3Cl)nnc2c1C` [Example 78, 3-(3-(2-chlorophenyl)-8-methyl[1,2,4]triazolo[4,3-a]pyridin-7-yl)-N-cyclopropyl-4-methylbenzamide], the pIC50 on p38α is 7.00 to 7.60; with THP1 cells it was 7.00 to 7.60; in the assay with monocytes, 6.00 to 6.60.
Take `Cc1c(F)cc(C(=O)NC2CC2)cc1-c1ccn2c(-c3ccncc3Cl)nnc2c1` [Example 79, 3-(3-(3-chloro-4-pyridinyl)[1,2,4]triazolo[4,3-a]pyridin-7-yl)-N-cyclopropyl-5-fluoro-4-methylbenzamide]: the pIC50 on p38α is above 7.60; in the assay on THP1 cells, above 7.60; in the assay with monocytes it was 7.00 to 7.60.
For the molecule `Cc1ccc(C(=O)NC2CC2)cc1-c1ccn2c(-c3ccncc3Cl)nnc2c1` [Example 80, 3-(3-(3-chloro-4-pyridinyl)[1,2,4]triazolo[4,3-a]pyridin-7-yl)-N-cyclopropyl-4-methylbenzamide], the results for the pIC50 at p38α, with THP1 cells and in the assay with monocytes were above 7.60, above 7.60 and 7.00 to 7.60, respectively.
As to `Cc1ccc(C(=O)NC2CC2)cc1-c1ccn2c(-c3c(C)cccc3Cl)nnc2c1` [Example 81, 3-(3-(2-chloro-6-methylphenyl)[1,2,4]triazolo[4,3-a]pyridin-7-yl)-N-cyclopropyl-4-methylbenzamide], the pIC50 against p38α, with THP1 cells and in the assay with monocytes was above 7.60 throughout.
In the case of `Cc1ccccc1-c1nnc2cc(-c3cc(C(=O)NC4CC4)cc(F)c3C)ccn12` [Example 82, N-cyclopropyl-3-fluoro-4-methyl-5-(3-(2-methylphenyl)[1,2,4]triazolo[4,3-a]pyridin-7-yl)benzamide], the pIC50 at p38α, in the assay with THP1 cells and with monocytes was above 7.60 throughout.
For `Cc1cccc(F)c1-c1nnc2cc(-c3cc(C(=O)NC4CC4)cc(F)c3C)ccn12` [Example 83, N-cyclopropyl-3-fluoro-5-(3-(2-fluoro-6-methylphenyl)[1,2,4]triazolo[4,3-a]pyridin-7-yl)-4-methylbenzamide], the pIC50 at p38α, in the assay on THP1 cells and with monocytes was above 7.60 throughout.
Turning to `Cc1ccc(C(=O)NC2CC2)cc1-c1ccn2c(Cc3ccccc3)nnc2c1` [Example 89, N-cyclopropyl-4-methyl-3-(3-(phenylmethyl)[1,2,4]triazolo[4,3-a]pyridin-7-yl)benzamide], the pIC50 against p38α was above 7.60; in the assay on THP1 cells it was 6.60 to 7.00; with monocytes, 6.00 to 6.60.
Take `Cc1cc(Cl)c(C(=O)NC2CC2)cc1-c1ccn2c(-c3ccccc3Cl)nnc2c1` [Example 90, 2-chloro-5-(3-(2-chlorophenyl)[1,2,4]triazolo[4,3-a]pyridin-7-yl)-N-cyclopropyl-4-methylbenzamide]: the pIC50 against p38α is 6.00 to 6.60; in the assay with THP1 cells it was 5.30 to 6.00; in the assay with monocytes it was below 5.30.
`Cc1cccc(Cl)c1-c1nnc2cc(-c3cc(C(=O)NC4CC4)cc(F)c3C)ccn12` [Example 91, 3-(3-(2-chloro-6-methylphenyl)[1,2,4]triazolo[4,3-a]pyridin-7-yl)-N-cyclopropyl-5-fluoro-4-methylbenzamide]: the pIC50 on p38α, with THP1 cells and in the assay on monocytes was above 7.60 each time.
`Cc1c(F)cc(C(=O)Nc2ccon2)cc1-c1ccn2c(-c3c(F)cccc3F)nnc2c1` [Example 92, 3-(3-(2,6-difluorophenyl)[1,2,4]triazolo[4,3-a]pyridin-7-yl)-5-fluoro-N-3-isoxazolyl-4-methylbenzamide]: the pIC50 against p38α, in the assay with THP1 cells and with monocytes was above 7.60 each time.
Take `Cc1ccc(C(=O)NC2CC2)cc1-c1ccn2c(C3CC3)nnc2c1` [Example 93, N-cyclopropyl-3-(3-cyclopropyl[1,2,4]triazolo[4,3-a]pyridin-7-yl)-4-methylbenzamide]: the pIC50 was above 7.60 against p38α, 7.00 to 7.60 with THP1 cells and 6.60 to 7.00 in the assay with monocytes.
The matching figures for `Cc1ccc(C(=O)NC2CC2)cc1-c1ccn2c(C3CCCCC3)nnc2c1` [Example 94, 3-(3-cyclohexyl[1,2,4]triazolo[4,3-a]pyridin-7-yl)-N-cyclopropyl-4-methylbenzamide]: above 7.60, 7.00 to 7.60 and 6.60 to 7.00.
With `Cc1ccc(C(=O)NC2CC2)cc1-c1ccn2c(C3CCCC3)nnc2c1` [Example 95, 3-(3-cyclopentyl[1,2,4]triazolo[4,3-a]pyridin-7-yl)-N-cyclopropyl-4-methylbenzamide], the pIC50 at p38α was above 7.60; with THP1 cells it was above 7.60; with monocytes it was 7.00 to 7.60.

(Values after patent US7700593B2, “Imidazo- and triazolo-pyridine compounds and methods of use thereof” (Amgen Inc., priority 2006, dated 2010).)
